Test results taken from publication PMC4877642 (2016).

Columns and labels:
[1] = tested on: X-Aptamer 2 (DNA, aptamer, dU with phenol (tyrosine) at C5 (Y) at 18; dU with indole (tryptophan) at C5 (W) at 38) TTTTTTTCTAGCTTCGTTTGTCTCAACGTGCCCTGCGTCGTGATCTTTTT; assay: SPR imaging, kinetic 1:1 fit; conditions: 10 mM PBS; pH 7.4, 4% acetonitrile, room temperature; 150 µM progesterone injected in screening
[2] = tested on: X-Aptamer 3 (DNA, aptamer, dU with phenol (tyrosine) at C5 (Y) at 18; dU with indole (tryptophan) at C5 (W) at 38) TTTTTTTCTAGAGATGTTTGTCTCAACGTGCCCTGCGTCGTGATCTTTTT; assay: SPR imaging, kinetic 1:1 fit; conditions: 10 mM PBS; pH 7.4, 4% acetonitrile, room temperature; 150 µM progesterone injected in screening
[3] = tested on: X-Aptamer 5 (DNA, aptamer, dU with phenol (tyrosine) at C5 (Y) at 23; dU with indole (tryptophan) at C5 (W) at 37 and 38) TTTTTTTCTAGCTTCCGTGAAATCAACGTGCCCTGGTTCGTCTAGTTTTT; assay: SPR imaging, kinetic 1:1 fit; conditions: 10 mM PBS; pH 7.4, 4% acetonitrile, room temperature; 150 µM progesterone injected in screening
[4] = tested on: X-Aptamer 6 (DNA, aptamer, dU with phenol (tyrosine) at C5 (Y) at 23; dU with indole (tryptophan) at C5 (W) at 37) TTTTTTTCTAGCTTCCGTGAAATCAACGTGCCCTGGTTAGTCTAGTTTTT; assay: SPR imaging, kinetic 1:1 fit; conditions: 10 mM PBS; pH 7.4, 4% acetonitrile, room temperature; 150 µM progesterone injected in screening
[5] = tested on: X-Aptamer 7 (DNA, aptamer, dU with phenol (tyrosine) at C5 (Y) at 23; dU with indole (tryptophan) at C5 (W) at 36 and 37) TTTTTTTCTAGCTTCCGTGAAATCAACGTGACCTGTTTAGTGATCTTTTT; assay: SPR imaging, kinetic 1:1 fit; conditions: 10 mM PBS; pH 7.4, 4% acetonitrile, room temperature; 150 µM progesterone injected in screening
[6] = tested on: X-Aptamer 8 (DNA, aptamer, dU with phenol (tyrosine) at C5 (Y) at 23; dU with indole (tryptophan) at C5 (W) at 37, 39 and 41) TTTTTTTCTAGCTTCCGTGAAATCAACGTGCCCTGGTATCTGATCTTTTT; assay: SPR imaging, kinetic 1:1 fit; conditions: 10 mM PBS; pH 7.4, 4% acetonitrile, room temperature; 150 µM progesterone injected in screening
[7] = tested on: X-Aptamer 9 (DNA, aptamer, dU with phenol (tyrosine) at C5 (Y) at 23; dU with indole (tryptophan) at C5 (W) at 36, 37 and 39) TTTTTTTCTAGCTTCCGTGAAATCAACGTGCCCTGTTATCGCTAGTTTTT; assay: SPR imaging, kinetic 1:1 fit; conditions: 10 mM PBS; pH 7.4, 4% acetonitrile, room temperature; 150 µM progesterone injected in screening
[8] = tested on: X-Aptamer 5 (DNA, aptamer, dU with phenol (tyrosine) at C5 (Y) at 23; dU with indole (tryptophan) at C5 (W) at 37 and 38) TTTTTTTCTAGCTTCCGTGAAATCAACGTGCCCTGGTTCGTCTAGTTTTT; assay: SPR imaging; conditions: 10 mM PBS; pH 7.4, 4% acetonitrile, room temperature; tested at 63 µg/mL

Row | SMILES | KD [1] [nM] | KD [2] [nM] | KD [3] [nM] | KD [4] [nM] | KD [5] [nM] | KD [6] [nM] | KD [7] [nM] | binding [8]
1 | CC(=O)[C@H]1CC[C@H]2[C@@H]3CCC4=CC(=O)CC[C@]4(C)[C@H]3CC[C@]12C | 0.04951 ± 9.9e-05 | 0.02174 ± 8.7e-05 | 0.02558 | 0.05303 ± 6.1e-05 | 0.14037 ± 6.4e-05 | 0.04079 ± 7.6e-05 | 0.06186 ± 7.6e-05 | 
2 | C[C@]12CC[C@@H]3c4ccc(O)cc4CC[C@H]3[C@@H]1CC[C@@H]2O |  |  |  |  |  |  |  | no
